According to patent publication US11234954B2, “Low-dose doxepin for treatment of sleep disorders in elderly patients” (Pernix Sleep, Inc., priority 2006, dated 2022):
Read-outs that look alike come from different tables or passages of the source.

Experiments:
[1] = tested on: patients aged 65 years or older with primary sleep maintenance insomnia; details: Per-Protocol N = 71; for WTDS, Mean (primary efficacy variable): WTDS typically expressed in minutes
Description: As used herein, the term “polysomnography” (PSG) refers a diagnostic test during which a number of physiologic variables are measured and recorded during sleep. Physiologic sensor leads are placed on the patient in order to record brain electrical activity, eye and jaw muscle movement, leg muscle movement, airflow, respiratory effort (chest and abdominal excursion), EKG and oxygen saturation. Information is gathered from all leads and fed into a computer and outputted as a series of waveform tracings which enable the technician to visualize the various waveforms, assign a score for the test, and assist in the diagnostic process. The primary efficacy variable, wake time during sleep (WTDS) and various secondary efficacy variables are all based on the PSG and are defined as follows.
“Wake Time During Sleep” (WTDS), typically expressed in minutes, is the number of wake events (epochs) after the onset of persistent sleep and prior to final awakening, divided by two. Each epoch is defined as a 30-second duration on the PSG recording.
“Wake Time After Sleep” (WTAS), typically expressed in minutes, is the number of epochs after the final awakening until the end of PSG recording (i.e., a wake epoch immediately prior to the end of the recording), divided by two.
“Wake After Sleep Onset” (WASO) is the sum of WTDS and WTAS.
“Latency to Persistent Sleep” (LPS), typically expressed in minutes, is the number of epochs from the beginning of the PSG recording (lights-out) to the start of the first 20 consecutive non-wake epochs, divided by two.
“Total Sleep Time” (TST), typically expressed in minutes, is the number of non-wake epochs from the beginning of the PSG recording to the end of the recording, divided by two.
“Sleep Efficiency” (SE) is the TST divided by the time in bed (8 hours), multiplied by 100 and expressed as a percentage. This also can be divided into SE for each third-of-the-night of sleep, reflecting the SE for each 160 minute time interval across the night. Finally, SE can be measured for individual hours during the night or sleep period, for example the final hour of the sleep period.
“NAASO” refers to the number of awakenings after sleep onset.
A randomized, multi-center, double-blind, placebo-controlled, four-period crossover, dose-response study was designed to assess the effects of doxepin (1 mg, 3 mg and 6 mg) compared with placebo in patients aged 65 years or older with primary sleep maintenance insomnia. Patients received a single-blind placebo for two consecutive nights during the PSG screening period, and double-blind study drug for two consecutive nights during each of the four treatment periods. […] Patients were allowed to leave the sleep center during the day after each PSG assessment was complete. A 5- or 12-day study drug-free interval separated each PSG assessment visit. The duration of study participation per patient was approximately 7 to 11 weeks.
Patients who qualified for study entry, based on the screening PSG assessments, were randomized to a treatment sequence using a Latin square design. A final study visit was performed for patients either after completion of the four treatment periods or upon discontinuation from the study. Efficacy assessments were made at each visit and safety assessments were performed throughout the study.
The main inclusion criteria were male and/or female patients, aged 65 years or older, in good general health with at least a 3-month history of Diagnostic and Statistical Manual of Mental Disorders, fourth Edition (DSM-IV)-defined primary insomnia, reporting each of the following on four of seven nights prior to PSG screening: ≤6.5 hours of total sleep time (TST), ≥60 min of wakefulness after sleep onset (WASO) and ≥20 min of latency to sleep onset (LSO). Doxepin HCl 1 mg, 3 mg and 6 mg capsules, and placebo capsules, were provided as a single dose for oral administration.
The primary efficacy assessment was WTDS.

[2] = tested on: patients aged 65 years or older with primary sleep maintenance insomnia; assay: Subjective sleep data, elderly crossover study (Example 1); type: in vivo, human; details: n = 71
From the text: “sWASO” refers to subjective wake after sleep onset (WASO).
“sTST” refers to subjective total sleep time.
“sNAASO” refers to subjective NAASO.
“LSO” refers to “latency to sleep onset, typically expressed in minutes.
The patients report subjected data, which were consistent with the PSG data.

[3] = tested on: patients aged 65 years or older with primary sleep maintenance insomnia; assay: Adverse events and safety, elderly crossover study (Example 1); type: in vivo, human
From the text: All randomized patients who received at least one dose of double-blind study medication were included in the safety analyses, which were based on observed data.
The adverse events are arranged by system organ class.

[4] = tested on: Adult Patients (Ages 18-64) with Primary Insomnia; assay: PSG efficacy, four-period crossover dose-response study in adults 18-64 (Example 3); type: in vivo, human; details: for LPS, Mean / SE, Mean / TST, Mean / WASO, Mean / WTAS, Mean: Per-Protocol N = 61; for WTDS, observed mean (±SD) (primary efficacy variable): WTDS typically expressed in minutes
From the text: (§1) The primary and secondary efficacy assessments were as described above in Example 1.

[5] = tested on: Adult Patients (Ages 18-64) with Primary Insomnia; assay: Subjective sleep parameters, adult crossover study (Example 3); type: in vivo, human; details: Per-Protocol N = 61
From the text: as §1

CN(C)CCC=C1c2ccccc2COc2ccccc21 (mixture of isomers) [Doxepin]
LPS, Mean ([1]; 1 mg): 28.3 min
NAASO, Mean ([1]; 1 mg): 12.3
SE, Mean ([1]; 1 mg): 78.5%
TST, Mean ([1]; 1 mg): 376.8 min
WASO, Mean ([1]; 1 mg): 80.5 min
WTAS, Mean ([1]; 1 mg): 10.4 min
WTDS, Mean (primary efficacy variable) ([1]; 1 mg): 70.1
WTDS, Mean (primary efficacy variable) ([1]; 1 mg, listed as doxepin): 70.1 (32.78)
LPS, Mean ([1]; 3 mg): 23.7 min
NAASO, Mean ([1]; 3 mg): 12.8
SE, Mean ([1]; 3 mg): 81.0%
TST, Mean ([1]; 3 mg): 388.8 min
WASO, Mean ([1]; 3 mg): 72.3 min
WTAS, Mean ([1]; 3 mg): 5.9 min
WTDS, Mean (primary efficacy variable) ([1]; 3 mg): 66.4
WTDS, Mean (primary efficacy variable) ([1]; 3 mg, listed as doxepin): 66.4 (31.56)
LPS, Mean ([1]; 6 mg): 22.4 min
NAASO, Mean ([1]; 6 mg): 12.5
SE, Mean ([1]; 6 mg): 82.8%
TST, Mean ([1]; 6 mg): 397.4 min
WASO, Mean ([1]; 6 mg): 65.2 min
WTAS, Mean ([1]; 6 mg): 5.0 min
WTDS, Mean (primary efficacy variable) ([1]; 6 mg): 60.2
WTDS, Mean (primary efficacy variable) ([1]; 6 mg, listed as doxepin): 60.2 (28.00)
LSO, Mean (SD) ([2]; 1 mg): 42.3 (32.1)
Sleep Quality, Mean (SD) ([2]; 1 mg): 0.8 (1.0)
sNAASO, Mean (SD) ([2]; 1 mg): 3.2 (2.1)
sTST, Mean (SD) ([2]; 1 mg): 355.7 (63.1)
sWASO, Mean (SD) ([2]; 1 mg): 74.3 (55.2)
LSO, Mean (SD) ([2]; 3 mg): 42.4 (40.1)
Sleep Quality, Mean (SD) ([2]; 3 mg): 0.9 (1.0)
sNAASO, Mean (SD) ([2]; 3 mg): 2.9 (1.7)
sTST, Mean (SD) ([2]; 3 mg): 362.4 (64.3)
sWASO, Mean (SD) ([2]; 3 mg): 72.2 (56.4)
LSO, Mean (SD) ([2]; 6 mg): 33.9 (24.8)
Sleep Quality, Mean (SD) ([2]; 6 mg): 0.8 (1.0)
sNAASO, Mean (SD) ([2]; 6 mg): 3.0 (1.4)
sTST, Mean (SD) ([2]; 6 mg): 369.4 (65.3)
sWASO, Mean (SD) ([2]; 6 mg): 71.5 (57.4)
HEADACHE: Number of Events ([3]; 1 mg, N = 74): 0
HEADACHE: Number of Patients ([3]; 1 mg, N = 74): 0 (0%)
HEADACHE: Number of Events ([3]; 3 mg, N = 75): 0
HEADACHE: Number of Patients ([3]; 3 mg, N = 75): 0 (0%)
HEADACHE: Number of Events ([3]; 6 mg, N = 74): 0
HEADACHE: Number of Patients ([3]; 6 mg, N = 74): 0 (0%)
LPS, Mean ([4]; 1 mg): 30.1 min
SE, Mean ([4]; 1 mg): 84.7%
TST, Mean ([4]; 1 mg): 406.5 min
WASO, Mean ([4]; 1 mg): 47.3 min
WTAS, Mean ([4]; 1 mg): 4.1 min
WTDS, observed mean (±SD) (primary efficacy variable) ([4]; 1 mg): 43.2 (28.2)
LPS, Mean ([4]; 3 mg): 30.8 min
SE, Mean ([4]; 3 mg): 86.5%
TST, Mean ([4]; 3 mg): 415.2 min
WASO, Mean ([4]; 3 mg): 38.6 min
WTAS, Mean ([4]; 3 mg): 5.2 min
WTDS, observed mean (±SD) (primary efficacy variable) ([4]; 3 mg): 33.4 (21.87)
LPS, Mean ([4]; 6 mg): 27.9 min
SE, Mean ([4]; 6 mg): 86.9%
TST, Mean ([4]; 6 mg): 417.2 min
WASO, Mean ([4]; 6 mg): 38.8 min
WTAS, Mean ([4]; 6 mg): 2.5 min
WTDS, observed mean (±SD) (primary efficacy variable) ([4]; 6 mg): 35.3 (25.17)
LSO, Mean ([5]; 1 mg): 46.9 min
sTST, Mean ([5]; 1 mg): 364.2 min
sWASO, Mean ([5]; 1 mg): 56.1 min
LSO, Mean ([5]; 3 mg): 46.1 min
sTST, Mean ([5]; 3 mg): 379.7 min
sWASO, Mean ([5]; 3 mg): 50.5 min
LSO, Mean ([5]; 6 mg): 44.1 min
sTST, Mean ([5]; 6 mg): 383.0 min
sWASO, Mean ([5]; 6 mg): 42.1 min
